Source: patent publication US20200316113A1, “USE OF COMPOSITION COMPRISING FERROUS AMINO ACID CHELATE IN MANUFACTURE OF MEDICAMENT FOR INHIBITING ANGIOGENESIS” (PROFEAT BIOTECHNOLOGY CO., LTD., priority 2017, published 2020)

System: human umbilical vein endothelial cells (HUVECs)
Experiment: MTT assay, effect of VEGF and Composition A1 on cell proliferation
Assay type: cell-based
Conditions: 0, 24, 48 and 72 hours, control group as basis
Description: Recombinant human vascular endothelial growth factor (VEGF) was purchased from R&D systems; Cat No. 293-VE. The HUVECs were used in the experiments. The cells were seeded in a 24-well plate at a density of 2×10^4 cells/well. The experiments include control group (not treated with VEGF) and the groups respectively treated with 1 ng/mL VEGF, 5 ng/mL VEGF, 10 ng/mL VEGF and 20 ng/mL VEGF for 0 hour, 24 hours, 48 hours and 72 hours. Each group was triplicated. The MTT assays were performed and values of OD 565 were measured in order to observe the effect of VEGF on cell growth.

VEGF
cell number / cell proliferation of HUVEC (OD 565, MTT) (1 ng/mL VEGF): not significant
cell number / cell proliferation of HUVEC (OD 565, MTT) (5 ng/mL VEGF): not significant
cell number / cell proliferation of HUVEC (OD 565, MTT) (10 ng/mL VEGF): increased
cell number / cell proliferation of HUVEC (OD 565, MTT) (20 ng/mL VEGF): increased
